Assay results: patent US6989377B2, “Treating vitamin D responsive diseases” (priority 1999, dated 2006)
Like-named read-outs stand apart in the source and are kept apart here.

Columns and labels:
[1] = system: chronic DS-induced IBD in C3H/HeJ male mice; experiment: Calcitriol treatment of chronic DS-induced colitis; type: in vivo, mouse
Experimental: Fecal hemoglobin was analyzed in the mice to determine bleeding from a breached intestinal barrier. […] Co., Needham Heights, Mass.), the supernatants were decanted into fresh tubes and stored frozen at -20° C. Hemoglobin in the supernatants was analyzed by a method adapted from Saitoh et al., Digestion, 56:67-75, 1995, and Liem et al., Anal. Biochem., 98:388-393, 1979, with rat hemoglobin as standard (Sigma-Aldrich). The supernatants were diluted 1:25 in TBS. […] The reaction was stopped with 100 μL of 2 M phosphoric acid, and the absorbance at 450 nm was measured with an MRX Revelation Microplate Reader (DYNEX Technologies). […] The mice were euthanized with an i.p. injection of pentobarbital. […] The fixed tissue was embedded in paraffin, sectioned at 6 μm, stained with hematoxylin and eosin, and examined by light microscopy. Scoring was conducted by a veterinary pathologist in blinded fashion. […] Clin. Invest., 98:1010-1020, 1996. The scores were summed to provide a total colitis score for each mouse. […] The serum was decanted and stored frozen at -20° C. The samples, standards, and buffer blanks (2 μL each) were aliquoted into duplicate wells of a 96-well plate. Calcium reagent working solution (0.25 mL), prepared according to the manufacturer's directions (Sigma Diagnostics, St. Louis, Mo.), was added to each well, and the absorbance at 570 nm was measured. […] In particular, age-matched adult C3H/HeJ male mice were subjected to three DS treatment cycles treatment separated by 6-8 weeks. […] Between treatments, the mice were fed laboratory mouse chow. These treatments induced chronic IBD. Beginning 10 days after the last DS treatment was completed, the mice were divided into two groups. The groups were matched with respect to fecal Hg and weight (Table 6). Group A was fed synthetic diet and group B was fed calcitriol in synthetic diet. The experiment was terminated 21 days later.

C3H/HeJ male mice = experiment: Serum calcium after calcitriol feeding, C3H/HeJ male mice; type: in vivo, mouse
Experimental: In order to determine serum calcium, blood was collected, allowed to clot, and centrifuged (5,000×g for 10 minutes) at 6° C. The serum was decanted and stored frozen at −20° C. The samples, standards, and buffer blanks (2 μL each) were aliquoted into duplicate wells of a 96-well plate. Calcium reagent working solution (0.25 mL), prepared according to the manufacturer's directions (Sigma Diagnostics, St. Louis, Mo.), was added to each well, and the absorbance at 570 nm was measured.

[2] = system: DSS-induced colitis in 129X1/SvJ male mice; experiment: Treatment at the first signs of DSS-induced colitis in 129X1/SvJ mice; type: in vivo, mouse
From the text: The 129×1/SvJ strain is genetically similar to the 129/Ola strain and to the 129/SvPas strain, which is less susceptible to DSS-induced colitis than C3H/HeJ.

B6×129-IL-10−/− mice = settings: for Serum Calcium B6x129-IL-10−/− female (mg/dL): analyzed when mice lost 15% of body weight; for Serum Calcium B6x129-IL-10−/− male (mg/dL): analyzed four weeks later
Experimental: The calcitriol feeding was resumed at a lower dose (20 ng/d) at age 16 weeks. […] The calcitriol feeding was resumed at a lower dose (10 ng/d) at age 18 weeks.
Four weeks later, the serum calcium levels were measured (Table 10).

[3] = system: DS-induced colitis in C3H/HeJ male mice; experiment: Calcitriol prevention of DS-induced colitis; type: in vivo, mouse; settings: 50 ng/day in diet from day −7; 1% DS days 0 to 5; terminated day 27
[4] = 50 ng/day after cycle 3, 21 days, 3 cycles of 1% DS
[5] = 50 ng/day after cycle 3, 3 cycles of 1% DS
[6] = 50 ng/d from day 4 of 1% DSS, terminated 21 days later
[7] = female, dose gradually reduced, age 24 weeks
[8] = female, dose gradually reduced, terminated at age 24 weeks
[9] = male, 50 ng/d, terminated at age 19 weeks

With `C=C1/C(=C\C=C2/CCC[C@]3(C)[C@@H]([C@H](C)CCCC(C)(C)O)CC[C@@H]23)C[C@@H](O)C[C@@H]1O` [Calcitriol, 1,25 dihydroxyvitamin D3] the “Terminal serum calcium” value [1, 4] was 10.3 ± 1.1 mg/dL, the “Terminal weight” value [1, 4] was 35.1 ± 4.0 g and the “Colon Histopathology, Distal colon” value [1, 5] was 1 ± 1. The “Colon histopathology, Medial colon” value [1, 5] was 1 ± 1, the “Colon histopathology, Proximal colon” value [1, 5] was 2 ± 1 and the “Colon histopathology, Rectum” value [1, 5] was 2 ± 1. The “Colon histopathology, Sum” value [1, 5] was 6 ± 2, the “Hemoglobin in Stool (DS cycle 3)” value ([1]; DS cycle 3, before calcitriol was started (groups matched for fecal Hg)) was 9 ± 10 mg/g and the “Effect on severity of chronic DS-induced IBD” value ([1]; calcitriol in synthetic diet for 21 days) was “reduced the severity of chronic DS-induced IBD”. For the same compound, the “Reduction in colon histopathology” value ([1]; treated with calcitriol for 21 days) was “approximately 45%”, the “Serum Calcium C3H/HeJ male” value (C3H/HeJ male mice; 10 ng/d for two weeks) was 10.5 ± 2.1 mg/dL and the “Serum Calcium C3H/HeJ male” value (C3H/HeJ male mice; 20 ng/d for two weeks) was 10.1 ± 2.7 mg/dL. The “Serum Calcium C3H/HeJ male” value (C3H/HeJ male mice; 50 ng/d for two weeks) was 9.9 ± 0.6 mg/dL, the “Serum Calcium C3H/HeJ male” value (C3H/HeJ male mice; 100 ng/d for two weeks) was 10.1 ± 1.8 mg/dL and the “Tolerability of the calcitriol doses” value (C3H/HeJ male mice; mouse, in vivo) was “well tolerated”. For the same compound, the “Colon Histopathology, Distal colon” value ([2]; 50 ng/d from day 4 of 1% DSS) was 0.6 ± 0.9, the “Colon Histopathology, Middle colon” value ([2]; 50 ng/d from day 4 of 1% DSS) was 0 ± 0 and the “Colon Histopathology, Rectum + anus” value ([2]; 50 ng/d from day 4 of 1% DSS) was 0.2 ± 0.4. The “Colon histopathology, Proximal colon” value ([2]; 50 ng/d from day 4 of 1% DSS) was 0.4 ± 0.8, the “Colon histopathology, Sum” value ([2]; 50 ng/d from day 4 of 1% DSS) was 1.2 ± 1.8 and the “Peak fecal hemoglobin” value ([2]; 50 ng/d from day 4 of 1% DSS, 1 cycle, terminated 21 days later) was 1.3 ± 1.2 mg/g. For the same compound, the “Terminal Serum Ca” value [2, 6] was 9.7 ± 3.2 mg/dL, the “Terminal weight” value [2, 6] was 26.4 ± 3.3 g and the “Colon histopathology compared to the mock-treated and prednisolone-treated mice” value ([2]; three weeks later) was “significant reduction in colon histopathology”. The “Effect on spontaneous colitis” value (B6×129-IL-10−/− mice; 50 ng/d, colitis severity scores vs mock-treated not significantly different) was “did not inhibit spontaneous colitis”, the “Serum Calcium B6x129-IL-10−/− female (mg/dL)” value (B6×129-IL-10−/− mice; female, 10 ng/d) was 12.5 ± 1.5 mg/dL and the “Serum Calcium B6x129-IL-10−/− female (mg/dL)” value (B6×129-IL-10−/− mice; female, 20 ng/d) was 13.0 ± 3.0 mg/dL. For the same compound, the “Serum Calcium B6x129-IL-10−/− female (mg/dL)” value (B6×129-IL-10−/− mice; female, 50 ng/d) was 12.9 ± 2.4 mg/dL, the “Peak fecal hemoglobin” value (B6×129-IL-10−/− mice; female, calcitriol from age 7 weeks, dose gradually reduced, terminated at age 24 weeks) was 0 ± 0 mg/g and the “Colon Histopathology, Distal colon” value (B6×129-IL-10−/− mice; [7]) was 3.3 ± 0.5. For the same compound, the “Colon Histopathology, Middle colon” value (B6×129-IL-10−/− mice; [7]) was 3.3 ± 0.5, the “Colon Histopathology, Rectum + anus” value (B6×129-IL-10−/− mice; [7]) was 2.8 ± 1.9 and the “Colon histopathology, Proximal colon” value (B6×129-IL-10−/− mice; [7]) was 3.9 ± 0.3. The “Colon histopathology, Sum” value (B6×129-IL-10−/− mice; [7]) was 13.1 ± 2.7, the “Terminal Serum Ca” value (B6×129-IL-10−/− mice; [8]) was 12.5 ± 1.5 mg/dL and the “Terminal weight” value (B6×129-IL-10−/− mice; [8]) was 19.5 ± 1.5 g. The Weight lost (B6×129-IL-10−/− mice; female, feeding resumed at 20 ng/d at age 16 weeks) was 15%, the “Serum Calcium B6x129-IL-10−/− male (mg/dL)” value (B6×129-IL-10−/− mice; male, 10 ng/d) was 15.8 ± 2.1 mg/dL and the “Serum Calcium B6x129-IL-10−/− male (mg/dL)” value (B6×129-IL-10−/− mice; male, 20 ng/d) was 14.4 ± 1.0 mg/dL. The “Peak fecal hemoglobin” value (B6×129-IL-10−/− mice; male, 50 ng/d from age 7 weeks, terminated at age 19 weeks) was 0 ± 0 mg/g, the “Colon Histopathology, Distal colon” value (B6×129-IL-10−/− mice; male, 50 ng/d, age 19 weeks) was 3.0 ± 0.0 and the “Colon Histopathology, Middle colon” value (B6×129-IL-10−/− mice; male, 50 ng/d, age 19 weeks) was 1.7 ± 1.2. For the same compound, the “Colon Histopathology, Rectum + anus” value (B6×129-IL-10−/− mice; male, 50 ng/d, age 19 weeks) was 2.7 ± 0.6, the “Colon histopathology, Proximal colon” value (B6×129-IL-10−/− mice; male, 50 ng/d, age 19 weeks) was 3.7 ± 0.6 and the “Colon histopathology, Sum” value (B6×129-IL-10−/− mice; male, 50 ng/d, age 19 weeks) was 11.1 ± 1.0. The “Serum Calcium B6x129-IL-10−/− male (mg/dL)” value (B6×129-IL-10−/− mice; male, 50 ng/d) was 16.0 ± 3.5 mg/dL, the “Terminal Serum Ca” value (B6×129-IL-10−/− mice; [9]) was 15.6 ± 2.5 mg/dL and the “Terminal weight” value (B6×129-IL-10−/− mice; [9]) was 19.7 ± 0.9 g. The “Mortality of male mice” value (B6×129-IL-10−/− mice; male, 100 ng/d from age 7 weeks) was “died abruptly at age 15 weeks”, the Hypercalcemia (B6×129-IL-10−/− mice; male, graded (very low) doses from age 7 weeks, four weeks) was “severe hypercalcemia” and the “Terminal weight” value [3] was 28.0 ± 2.9 g.
